Source: patent publication US20220241311A1, “METHODS AND MATERIALS FOR TREATING GLYCOSYLATION DISORDERS” (priority 2018, published 2022)
Entries after “also recorded” stand apart in the source; their conditions may differ.

Assays:
PGM1-CDG patients = experiment: Oral D-gal supplementation: laboratory studies in blood (liver transaminases, coagulation, glycoproteins, CK, glucose); assay type: in vivo, human
Excerpt: The study design was an open-label prospective study. Patients with biochemically and genetically confirmed PGM1 deficiency were recruited into the study. Individuals with an existing diagnosis of aldolase B deficiency, galactosemia, hemolytic uremic syndrome, severe anemia, galactose intolerance, or intellectual disability were excluded from the study. Nine patients were enrolled in the study, five females and four males. Patient age ranged from 19 months to 21 years old at the time of enrollment (mean age 9.75 years). Informed written consent was obtained before the start of study. A primary end-point was to assess the safety and tolerability of oral D-gal supplementation and to identify physiological biomarkers that are responsive to D-gal supplementation in a heterogeneous genetic background. The effect of D-gal in PGM1-CDG patients was also monitored via glycomics. Secondary endpoints were the restoration of the plasma glycan subfractions, monitored via glycomics (Table 3), and normalization of antithrombin III activity and serum alanine transaminase (ALT) levels.
The D-gal intake was increased over the study period in increments as follows: weeks 0-6 (T0-T1), 0.5 g/kg per day; weeks 6-12 (T1-T2), 1.0 g/kg per day; weeks 12-18 (T2-T3), 1.5 g/kg per day (FIG. 2). The intake was increased gradually to reach the recommended maximum daily dose with minimal gastrointestinal irritation (diarrhea, stomachache, nausea) and metabolic side effects (presence of urinary galactitol).
Dietary assessment, clinical evaluation (general physical examination and anthropometric measurements), and laboratory and biochemical studies were completed every 6 weeks (T0, T1, T2 and T3).
(§1) Liver transaminases (aspartate transaminase (AST) and alanine transaminase (ALT)), creatine kinase (CK), commonly assayed glycoproteins (thyroid stimulating hormone (TSH), thyroxine-binding globulin (TBG), and insulin-like growth factor binding protein 3 (IGF3BP)), and coagulation parameters (Factor IX, Factor XI, activated […] (aPTT), and anti-thrombin III (ATIII)), were measured in blood. Patent 1 had additional Factor XI, and XIII measurements. Serum galactose-1-phosphate and urine galactitol were measured to monitor safety and tolerability of galactose supplementation. Biochemical studies to evaluate changes in glycosylation included isoelectric focusing (IEF) of serum transferrin and glycomic analysis in blood by mass spectrometry.
Patient 1 remained on D-gal 1 g/kg/day after the study period as D-gal is the only currently available compassionate treatment for PGM1-CDG. The parameters monitored during the study period, including additional coagulation factor measurements, have been followed as part of routine care (Table 4).
Quantitative data are presented as the mean±standard error of the mean.

serum transferrin = experiment: Glycomics / high-resolution mass spectrometry of intact serum transferrin at T0 and T3; assay type: in vivo, human; conditions: for Ratio A-Glyco / DiGlyco transferrin / Ratio Mono-Glyco / DiGlyco transferrin / Ratio Trisialo-Glyco / DiGlyco transferrin: T = 3; for Ratio A-Glyco / DiGlyco transferrin: control range <=0.01040; for Ratio Mono-Glyco / DiGlyco transferrin: control range <=0.02700; for Ratio Trisialo-Glyco / DiGlyco transferrin: control range <=0.031900
Description: as §1
Plasma (sodium heparin) or serum was used for glycomics analysis according to the procedure as described elsewhere (see, e.g., van Scherpenzeel et al., 2015 Transl Res 166:639-649.e1). Briefly, a 10 μl serum sample was purified using anti-transferrin beads. The eluate was analyzed on a microfluidic 6540 LC-chip-QTOF instrument (Agilent Technologies) using a C8 protein chip. Data analysis was performed using Agilent Mass Hunter Qualitative Analysis Software B.05.00.
The most abundant peaks in the transferrin mass spectrometry profiles were annotated, and ratios were calculated for the nonglycosylated (A-Glyco), monoglycosylated (Mono-Glyco), and trisialo- (Trisialo-Glyco) transferrin over the normal transferrin peak (tetrasialo; Di-Glyco). Ratios were compared in patient samples before D-gal supplementation and 18 weeks after starting oral supplements according to protocol. An example is shown in FIG. 5 for a severely (patient 2) and a mildly (patient 9) abnormal profile. A-Glyco- and Mono-Glyco ratios were abnormal in all patients. […] The most pronounced improvement was measured in patient 4. In patients 3 and 8, the A-Glyco peak normalized (Table 3, FIG. 6).

PGM1-CDG fibroblasts = experiment: Galactose supplementation of PGM1-CDG fibroblasts, tracer based metabolomics; assay type: cell-based, human
Description: To probe the biochemical basis to galactose treatment, a tracer based metabolomics was employed to simultaneously track the activity of multiple pathways. Control and PGM1-CDG fibroblasts were cultured with 13C tagged glucose, with and without galactose. The 13C tracer was then incorporated into connected pathways after which, the cells were harvested to enable detection of metabolites by the mass-spectrometry.

[1] = tested on: PGM1 deficient cell lines; experiment: Lipid-linked and protein-linked oligosaccharide analysis
ICAM-1 = ICAM-1 Western blotting with galactose supplementation, healthy cells
[2] = patient 1, 1 g/kg/day for additional 12 months
[3] = 2 mM galactose added to the culture medium for 5 days

SMILES: O=C[C@H](O)[C@@H](O)[C@@H](O)[C@H](O)CO [D-gal, D-galactose]
- ALT levels (PGM1-CDG patients; T0 to T2, p=0.05): significantly decreased
- ATIII, T0 vs T3 (PGM1-CDG patients; all patient data, P=0.020): significant difference
- AST (PGM1-CDG patients; all patients except patient 2, 18 weeks): did not normalize at 18 weeks, it fell below baseline
- AST (PGM1-CDG patients; all patients, 6 weeks): moderately declined
- AST (PGM1-CDG patients; all patients, 12 weeks vs baseline): declined by 23% to more than 10-fold
- Creatine kinase and glucose levels (PGM1-CDG patients; during the study): fluctuated and remained abnormal
- Frequency of hypoglycemic episodes (PGM1-CDG patients; during the study): decreased significantly in four patients
- Laboratory parameters at 1.5 g/kg/day compared to 1 g/kg/day (PGM1-CDG patients; last 6 weeks of the trial): did not lead to significant improvement
- ALT, aPTT, ATIII, TSH, TBG, long-term (PGM1-CDG patients; [2]): remained stable
- Factor XI and Factor XIII, long-term (PGM1-CDG patients; [2]): returned to before-treatment levels
- ATIII (PGM1-CDG patients; patient 1, 18 weeks): remained within normal range
- Factor XI (PGM1-CDG patients; patient 1, after 12-18 weeks): normalized
- Factor XIII (PGM1-CDG patients; patient 1, after 12-18 weeks): normalized
- Creatine kinase decrease, long-term (PGM1-CDG patients; patient 1, over the course of one year): ~80%
- TSH (PGM1-CDG patients; patient 2 (abnormal baseline)): normalized at 18 weeks
- ATIII vs baseline (PGM1-CDG patients; patient 2, 18 weeks): twofold higher than baseline
- AST (PGM1-CDG patients; patient 2, 18 weeks, after discontinuing galactose for 2 weeks): spiked upwards, almost reaching baseline
- ALT, excess over baseline (PGM1-CDG patients; patient 2, 18 weeks, intercurrent illness): 18%
- ATIII drop (PGM1-CDG patients; patient 2, following illness and cessation of galactose intake): 30%
- IGFBP-3 (PGM1-CDG patients; patient 3): normalized at 18 weeks
- TSH (PGM1-CDG patients; patient 5 (abnormal baseline)): normalized at 6 weeks and remained stable at 12 and 18 weeks
- ALT decrease (PGM1-CDG patients; patient 5, 6 weeks): 43%
- ATIII (PGM1-CDG patients; patient 5, 6 weeks): transiently normalized
- ALT above the upper limit of normal (PGM1-CDG patients; patient 5, 12 and 18 weeks): 3%
- ATIII below the lower limit of normal (PGM1-CDG patients; patient 5, 12 and 18 weeks): 8%
- IGFBP-3 (PGM1-CDG patients; patient 6, 12 weeks): slight improvement
- IGFBP-3 below the lower limit of normal (PGM1-CDG patients; patient 6, 12 weeks): about 50%
- TBG below the lower limit of normal (PGM1-CDG patients; patient 6, 12 weeks): 8%
- TBG improvement (PGM1-CDG patients; patient 6, 12 weeks): 30%
- TBG higher than the upper limit of normal (PGM1-CDG patients; patient 9, 18 weeks): 80%
- TBG decline (PGM1-CDG patients; patient 9, 18 weeks, baseline twofold the upper limit of normal): 12%
- ALT (PGM1-CDG patients; patients 1, 2, 4, 7 (abnormal baseline)): normalized at 6 or 12 weeks
- Factor IX levels (PGM1-CDG patients; patients 1, 2, 5, 6, 9, 18 weeks): remained normal
- IGFBP-3 (PGM1-CDG patients; patients 1 and 2): normalized at 12 weeks and remained stable at 18 weeks
- TBG (PGM1-CDG patients; patients 1 and 2): normalized at 6 weeks and remained stable at 12 and 18 weeks
- ATIII (PGM1-CDG patients; patients 1 and 2, 12 weeks): normalized
- aPTT (PGM1-CDG patients; patients 1 and 7 (abnormal baseline)): normalized at 6 and 12 weeks, respectively
- aPTT (PGM1-CDG patients; patients 2, 3, 5, 6 (normal baseline)): remained stable
- Transferrin glycosylation (serum transferrin; 8 patients, type 2 pattern shifting to mild type 1 pattern): Clear improvement
- Ratio A-Glyco / DiGlyco transferrin (serum transferrin; Patient 1): 0.042
- Ratio Mono-Glyco / DiGlyco transferrin (serum transferrin; Patient 1): 0.198
- Ratio Trisialo-Glyco / DiGlyco transferrin (serum transferrin; Patient 1): 0.0778
- Ratio A-Glyco / DiGlyco transferrin (serum transferrin; Patient 2): 0.046
- Ratio Mono-Glyco / DiGlyco transferrin (serum transferrin; Patient 2): 0.213
- Ratio Trisialo-Glyco / DiGlyco transferrin (serum transferrin; Patient 2): 0.0542
- Ratio A-Glyco / DiGlyco transferrin (serum transferrin; Patient 3): 0.002
- Ratio Mono-Glyco / DiGlyco transferrin (serum transferrin; Patient 3): 0.071
- Ratio Trisialo-Glyco / DiGlyco transferrin (serum transferrin; Patient 3): 0.0549
- Ratio A-Glyco / DiGlyco transferrin (serum transferrin; Patient 4): 0.314
- Ratio Mono-Glyco / DiGlyco transferrin (serum transferrin; Patient 4): 0.632
- Ratio Trisialo-Glyco / DiGlyco transferrin (serum transferrin; Patient 4): 0.0938
- Ratio A-Glyco / DiGlyco transferrin (serum transferrin; Patient 5): 0.021
- Ratio Mono-Glyco / DiGlyco transferrin (serum transferrin; Patient 5): 0.142
- Ratio Trisialo-Glyco / DiGlyco transferrin (serum transferrin; Patient 5): 0.0740
- Ratio A-Glyco / DiGlyco transferrin (serum transferrin; Patient 6): 0.044
- Ratio Mono-Glyco / DiGlyco transferrin (serum transferrin; Patient 6): 0.293
- Ratio Trisialo-Glyco / DiGlyco transferrin (serum transferrin; Patient 6): 0.0639
- Ratio A-Glyco / DiGlyco transferrin (serum transferrin; Patient 7): 0.108
- Ratio Mono-Glyco / DiGlyco transferrin (serum transferrin; Patient 7): 0.356
- Ratio Trisialo-Glyco / DiGlyco transferrin (serum transferrin; Patient 7): 0.0551
- Ratio A-Glyco / DiGlyco transferrin (serum transferrin; Patient 8 (non-compliant)): 0.003
- Ratio Mono-Glyco / DiGlyco transferrin (serum transferrin; Patient 8 (non-compliant)): 0.081
- Ratio Trisialo-Glyco / DiGlyco transferrin (serum transferrin; Patient 8 (non-compliant)): 0.0712
- Ratio A-Glyco / DiGlyco transferrin (serum transferrin; Patient 9): 0.019
- Ratio Mono-Glyco / DiGlyco transferrin (serum transferrin; Patient 9): 0.127
- Ratio Trisialo-Glyco / DiGlyco transferrin (serum transferrin; Patient 9): 0.0561
- Transferrin glycosylation pattern (serum transferrin; T3): None of the patients showed a normalized pattern
- Transferrin glycosylation (serum transferrin; patient 5): no change was observed
- A-glyco fraction (serum transferrin; patients 3 and 8, 18 weeks): completely normalized
- Cellular UDP-hexose pools (PGM1-CDG fibroblasts; [3]): significant increase
- Cellular glycosylation (PGM1-CDG fibroblasts; [3]): improved cellular glycosylation
- Levels of UDP-glucose and UDP-galactose (PGM1-CDG fibroblasts; culture media supplemented with galactose): restored depleted levels; also recorded: significantly increased
- Glycosylation (PGM1-CDG fibroblasts; culture supplemented with galactose): restarted stalled glycosylation
- PLO profile ([1]; all four patient cell lines): In none of the patients galactose supplementation had an effect
- Shortened LLO (Man9GlcNAc2-PP-dolichol) ([1]; patient 8): No improvement
- Shortened LLO (Man9GlcNAc2-PP-dolichol) ([1]; patients 1, 2, cell-line 2013Y, 10 mM D-gal, LLO profile similar to control): reduction of shortened LLO
- ICAM-1 expression (ICAM-1): no effect
